From patent publication US8119624B2, “Fused phenyl amido heterocyclic compounds” (Pfizer Inc., priority 2006, dated 2012) come the findings set out here.

The assay concerns the target T1, Full-length glucokinase (beta cell isoform) (Homo sapiens, UniProt P35557).
T1 construct: Full-length glucokinase (beta cell isoform) was His-tagged at N-terminus; His tag (N); made in house
T1 sequence (P35557 1-465): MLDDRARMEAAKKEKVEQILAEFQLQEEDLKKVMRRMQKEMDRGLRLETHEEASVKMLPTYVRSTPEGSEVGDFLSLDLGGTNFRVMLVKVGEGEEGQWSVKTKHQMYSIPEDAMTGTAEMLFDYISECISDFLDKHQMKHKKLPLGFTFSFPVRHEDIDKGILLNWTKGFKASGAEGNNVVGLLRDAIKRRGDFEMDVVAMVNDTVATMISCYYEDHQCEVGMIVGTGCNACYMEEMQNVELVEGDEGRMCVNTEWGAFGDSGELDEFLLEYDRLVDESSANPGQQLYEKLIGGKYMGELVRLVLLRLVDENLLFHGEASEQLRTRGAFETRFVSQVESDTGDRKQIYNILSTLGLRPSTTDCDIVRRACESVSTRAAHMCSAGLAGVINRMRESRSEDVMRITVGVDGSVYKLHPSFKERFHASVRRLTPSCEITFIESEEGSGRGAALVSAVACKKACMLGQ
The assay is described as follows: Glucokinase biochemical assay (PK/LDH-coupled, NADH depletion at 340 nm): % activation, EC50, % max activation. Conditions: 5 mM glucose; for activation at 10 µM: read-out: % Activation at 10 uM; for EC50: GK activation, read-out: EC50; for Emax: read-out: % Max Activation. The essentials:
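Activation expressed as (Va/Vo−1)×100, where initial rates with and without compound come from NADH depletion at 340 nm over 200–900 s. Enzyme is His-tagged human beta-cell GK, full length, run at room temperature in HEPES buffer with 1 mM ATP and 5 mM glucose. DMSO 1%.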

Setting [1] is: 10 uM compound, % Activation=(Va/Vo−1)×100.

SMILES strings stand for the structures.

As a reminder, the EC50 is the concentration that produces a half-maximal response.

For the compound `COCC1(C)Cc2c(Oc3ccc(S(C)(=O)=O)c(F)c3)cc(C(=O)Nc3ccn(C)n3)cc2O1` (centres unmarked) [Example 237, 4-(3-Fluoro-4-methanesulfonyl-phenoxy)-2-methoxymethyl-2-methyl-2,3-dihydro-benzofuran-6-carboxylic acid (1-methyl-1H-pyrazol-3-yl)-amide], the EC50 stood at 98 nM. Moreover, the activation at 10 µM under setting [1] stood at 189%. For the setting “fitted maximum activation”, the Emax stood at 157%.
As for `Cc1cc2cc(Oc3ccc(S(C)(=O)=O)cc3)cc(C(=O)Nc3ccccn3)c2o1` [Example 5, 5-(4-Methanesulfonyl-phenoxy)-2-methyl-benzofuran-7-carboxylic acid pyridin-2-ylamide], under setting [1], the activation at 10 µM was -6.3%.
Turning to `Cc1ccc(NC(=O)c2cc(Oc3ccc(C(=O)N4CCC4)c(F)c3)c3c(c2)OC(CO)C3)nc1` (centres unmarked) [Example 203, 4-[4-(Azetidine-1-carbonyl)-3-fluoro-phenoxy]-2-hydroxymethyl-2,3-dihydro-benzofuran-6-carboxylic acid (5-methyl-pyridin-2-yl)-amide], the concentration for a half-maximal effect (EC50) is 810 nM. Moreover, under setting [1], the activation at 10 µM turned out to be 82.6%. Further, the Emax (fitted maximum activation) came out at 91%.
On to `Cn1ccc(NC(=O)c2cc(Oc3ccc(C(=O)N4CCOCC4)cc3F)c3c(c2)OC(C)(C)C3)n1` [Example 41, 4-[2-Fluoro-4-(morpholine-4-carbonyl)-phenoxy]-2,2-dimethyl-2,3-dihydro-benzofuran-6-carboxylic acid(1-methyl-1H-pyrazol-3-yl)-amide], for which the EC50 came to 1400 nM. Besides, the activation at 10 µM under setting [1] was 138%. The Emax (fitted maximum activation) is 141%.
On to `CN(C)C(=O)c1ccc(Oc2cc(C(=O)Nc3ccncn3)cc3c2CC(C)(C)O3)cc1` [Example 156, 4-(4-Dimethylcarbamoyl-phenoxy)-2,2-dimethyl-2,3-dihydro-benzofuran-6-carboxylic acid pyrimidin-4-ylamide], for which the EC50 turned out to be 460 nM. Besides, the activation at 10 µM under setting [1] is 52%. Moreover, under “fitted maximum activation”, the Emax is 49%.
For `Cc1ccc(NC(=O)c2cc(Oc3ccc(S(C)(=O)=O)cc3)cc3c2CCO3)nc1` [Example 6, 6-(4-Methanesulfonyl-phenoxy)-2,3-dihydrobenzofuran-4-carboxylic acid(5-methyl-pyridin-2-yl)-amide] the same measures were 9600 nM, 87.6% and 123%.
For `CN(C)C(=O)c1c(F)cc(Oc2cc(C(=O)Nc3ccn(C)n3)cc3c2CC(C)(C)O3)cc1F` [Example 111, 4-(4-Dimethylcarbamoyl-3,5-difluoro-phenoxy)-2,2-dimethyl-2,3-dihydro-benzofuran-6-carboxylic acid (1-methyl-1H-pyrazol-3-yl)-amide] the same measures were 45 nM, 85.2% and 115%.
As for `Cn1ncc(NC(=O)c2cc(Oc3ccc(C#N)c(F)c3)c3c(c2)OC(C)(C)C3)n1` [Example 184, 4-(4-Cyano-3-fluoro-phenoxy)-2,2-dimethyl-2,3-dihydro-benzofuran-6-carboxylic acid (2-methyl-2H-[1,2,3]triazol-4-yl)-amide], the EC50 was 3200 nM. Besides, the activation at 10 µM under setting [1] was determined as 250%. Moreover, the Emax (fitted maximum activation) was determined as 251%.
For `Cn1ccc(NC(=O)c2cc(OCc3ccccc3)c3c(c2)OC(C)(C)C3)n1` [Example 80, 4-Benzyloxy-2,2-dimethyl-2,3-dihydro-benzofuran-6-carboxylic acid (1-methyl-1H-pyrazol-3-yl)-amide] the same measures were 5900 nM, 111% and 176%.
Turning to `COc1cnc(NC(=O)c2cc(Oc3ccc(C(=O)N(C)C)nc3)c3cc(C)oc3c2)cn1` [Example 279, 5-(6-((5-Methoxypyrazin-2-yl)carbamoyl)-2-methylbenzofuran-4-yloxy)-N,N-dimethylpicolinamide], the EC50 came to 430 nM. Further, under setting [1], the activation at 10 µM came to 84.3%. Also, the Emax (fitted maximum activation) stood at 105%.
As for `CCNC(=O)c1ccc(Oc2cc(C(=O)Nc3ccn(C)n3)cc3c2CC(C)(C)O3)cn1` [Example 168, 5-[2,2-Dimethyl-6-(1-methyl-1H-pyrazol-3-ylcarbamoyl)-2,3-dihydro-benzofuran-4-yloxy]-pyridine-2-carboxylic acid ethylamide], the concentration for a half-maximal effect (EC50) is 199 nM. Moreover, the activation at 10 µM under setting [1] turned out to be 172%. Where the note is “fitted maximum activation”, the Emax came out at 184%.
Consider `COCC1Cc2c(Oc3ccc(C(=O)N(C)C)c(F)c3)cc(C(=O)Nc3ccn(C)n3)cc2O1` (single isomer, unassigned; (-)) [Example 206, (−)-4-(4-Dimethylcarbamoyl-3-fluoro-phenoxy)-2-methoxymethyl-2,3-dihydro-benzofuran-6-carboxylic acid (1-methyl-1H-pyrazol-3-yl)-amide], for which the EC50 is 270 nM. Under setting [1], the “% Activation at 10 uM” value worked out at 91.3%. Moreover, for the setting “fitted maximum activation”, the “% Max Activation” value was 102%.
For `Cn1ccc(NC(=O)c2cc(Oc3ccc(C(=O)N4CCOCC4)c(F)c3)c3c(c2)OC(C)(C)C3)n1` [Example 51, 4-[3-Fluoro-4-(morpholine-4-carbonyl)-phenoxy]-2,2-dimethyl-2,3-dihydro-benzofuran-6-carboxylic acid(1-methyl-1H-pyrazol-3-yl)-amide], the concentration giving a half-maximal response (EC50) was determined as 250 nM. Further, the activation at 10 µM under setting [1] came out at 129%. Besides, the Emax (fitted maximum activation) was found to be 130%.
For `Cn1ccc(NC(=O)c2cc(Oc3ccc(C(=O)N4CC[C@H](F)C4)c(F)c3)c3c(c2)OC(C)(C)C3)n1` [Example 63, 4-[3-Fluoro-4-((S)-3-fluoro-pyrrolidine-1-carbonyl)-phenoxy]-2,2-dimethyl-2,3-dihydro-benzofuran-6-carboxylic acid(1-methyl-1H-pyrazol-3-yl)-amide] the same measures were 230 nM, 170% and 158%.
Turning to `Cc1ccc(NC(=O)c2cc(Oc3ccc(C(=O)N(C)C)c(F)c3)c3sccc3c2)nc1` [Example 365, 7-(4-(Dimethylcarbamoyl)-3-fluorophenoxy)-N-(5-methylpyridin-2-yl)benzo[b]thiophene-5-carboxamide], the activation at 10 µM under setting [1] was determined as 4%.
As for `COc1cnc(NC(=O)c2cc(Oc3ccc(S(C)(=O)=O)cc3)c3cc(C)oc3c2)cn1` [Example 263, N-(5-methoxypyrazin-2-yl)-2-methyl-4-(4-(methylsulfonyl)-phenoxy)-benzofuran-6-carboxamide], the EC50 was 840 nM. In addition, the activation at 10 µM under setting [1] amounted to 157%. Besides, for the setting “fitted maximum activation”, the Emax came out at 146%.
Regarding `Cn1ccc(NC(=O)c2cc(Oc3ccc(C(=O)N4CCOCC4)cc3)c3c(c2)OC(C)(C)C3)n1` [Example 47, 2,2-Dimethyl-4-[4-(morpholine-4-carbonyl)-phenoxy]-2,3-dihydro-benzofuran-6-carboxylic acid(1-methyl-1H-pyrazol-3-yl)-amide], the half-maximal effective concentration (EC50) came to 1050 nM. Moreover, the activation at 10 µM under setting [1] was 140%. Under “fitted maximum activation”, the Emax is 156%.
Take `Cc1ccc(NC(=O)c2cc(Oc3ccc(C(F)F)cc3)c3cc(C(=O)N(C)C)oc3c2)nc1` [Example 323, 4-[4-(Difluoromethyl)phenoxy]-N^2,N^2-dimethyl-N^6-(5-methylpyridin-2-yl)-1-benzofuran-2,6-dicarboxamide]: the EC50 was 3700 nM. The activation at 10 µM under setting [1] is 78%. For the same compound, for the setting “fitted maximum activation”, the Emax is 83%.
